In patent US9265253B2, “Use of macrocyclic picolinamides as fungicides” (DOW AGROSCIENCES LLC, priority 2013, dated 2016):

Columns and labels:
Format in all cases: in vivo
Cercospora beticola = assay: Leaf Spot of Sugar Beets (CERCBE) disease control; conditions: 1 Day Protectant, sugar beet; for pest or weed control at 100 ppm: Cercospora beticola, topical, 24 h, read-out: Disease Control CERCBE 1 DP
Description: Technical grades of materials were dissolved in acetone, which were then mixed with nine volumes of water containing 110 ppm Triton X-100. The fungicide solutions were applied onto wheat seedlings using an automated booth sprayer to run-off. All sprayed plants were allowed to air dry prior to further handling. All fungicides were evaluated using the aforementioned method for their activity vs. all target diseases. Wheat leaf blotch and brown rust activity were also evaluated using track spray applications, in which case the fungicides were formulated as EC formulations, containing 0.1% Trycol 5941 in the spray solutions. Wheat plants (variety Yuma) were grown from seed in a greenhouse in 50% mineral soil/50% soil-less Metro mix until the first leaf was fully emerged, with 7-10 seedlings per pot. These plants were inoculated with an aqueous spore suspension of Septoria tritici either prior to or after fungicide treatments. After inoculation the plants were kept in 100% relative humidity (one day in a dark dew chamber followed by two to three days in a lighted dew chamber at 20° C.) to permit spores to germinate and infect the leaf. The plants were then transferred to a greenhouse set at 20° C. for disease to develop. When disease symptoms were fully expressed on the 1st leaves of untreated plants, infection levels were assessed on a scale of 0 to 100 percent disease severity. Percent disease control was calculated using the ratio of disease severity on treated plants relative to untreated plants. Sugar beet plants (variety HH88) were grown in soil-less Metro mix and trimmed regularly to maintain a uniform plant size prior to test. Plants were inoculated with a spore suspension 24 hr after fungicide treatments. Inoculated plants were kept in a dew chamber at 22° C. for 48 hr then incubated in a greenhouse set at 24° C. under a clear plastic hood with bottom ventilation until disease symptoms were fully expressed. Fungicide formulation, application and disease assessment on the sprayed leaves followed the procedures as described in the Example A.

[1] = tested on: Magnaporthe grisea; Anamorph: Pyricularia oryzae; assay: whole plant or invertebrate; conditions: for pest or weed control at 100 ppm: Pyricularia oryzae, topical, 24 h, read-out: Disease Control PYRIOR 1 DP
[2] = tested on: Glomerella lagenarium; Anamorph: Colletotrichum lagenarium; assay: Cucumber Anthracnose (COLLLA) disease control; conditions: 1 Day Protectant; for pest or weed control at 100 ppm: Colletotrichum orbiculare, topical, 24 h, read-out: Disease Control COLLLA 1 DP
Description: Technical grades of materials were dissolved in acetone, which were then mixed with nine volumes of water containing 110 ppm Triton X-100. The fungicide solutions were applied onto wheat seedlings using an automated booth sprayer to run-off. All sprayed plants were allowed to air dry prior to further handling. All fungicides were evaluated using the aforementioned method for their activity vs. all target diseases. Wheat leaf blotch and brown rust activity were also evaluated using track spray applications, in which case the fungicides were formulated as EC formulations, containing 0.1% Trycol 5941 in the spray solutions. Wheat plants (variety Yuma) were grown from seed in a greenhouse in 50% mineral soil/50% soil-less Metro mix until the first leaf was fully emerged, with 7-10 seedlings per pot. These plants were inoculated with an aqueous spore suspension of Septoria tritici either prior to or after fungicide treatments. After inoculation the plants were kept in 100% relative humidity (one day in a dark dew chamber followed by two to three days in a lighted dew chamber at 20° C.) to permit spores to germinate and infect the leaf. The plants were then transferred to a greenhouse set at 20° C. for disease to develop. When disease symptoms were fully expressed on the 1st leaves of untreated plants, infection levels were assessed on a scale of 0 to 100 percent disease severity. Percent disease control was calculated using the ratio of disease severity on treated plants relative to untreated plants. Cucumber seedlings (variety Bush Pickle) were propagated in soil-less Metro mix, with each pot having one plant, and used in the test when 12 to 14 days old. Test plants were inoculated with an aqueous spore suspension of Colletotrichum lagenarium 24 hr after fungicide treatments. After inoculation the plants were kept in a dew room at 22° C. with 100% relative humidity for 48 hr to permit spores to germinate and infect the leaf. The plants were then transferred to a growth room set at 22° C. for disease to develop. Fungicide formulation, application and disease assessment on the sprayed leaves followed the procedures as described in the Example A.

Rhyncosporium secalis = assay: Barley Scald (RHYNSE) disease control; conditions: 1 Day Protectant; for pest or weed control at 100 ppm: Hordeum vulgare, 24 h, read-out: Disease Control RHYNSE 1 DP
Description: Technical grades of materials were dissolved in acetone, which were then mixed with nine volumes of water containing 110 ppm Triton X-100. The fungicide solutions were applied onto wheat seedlings using an automated booth sprayer to run-off. All sprayed plants were allowed to air dry prior to further handling. All fungicides were evaluated using the aforementioned method for their activity vs. all target diseases. Wheat leaf blotch and brown rust activity were also evaluated using track spray applications, in which case the fungicides were formulated as EC formulations, containing 0.1% Trycol 5941 in the spray solutions. Wheat plants (variety Yuma) were grown from seed in a greenhouse in 50% mineral soil/50% soil-less Metro mix until the first leaf was fully emerged, with 7-10 seedlings per pot. These plants were inoculated with an aqueous spore suspension of Septoria tritici either prior to or after fungicide treatments. After inoculation the plants were kept in 100% relative humidity (one day in a dark dew chamber followed by two to three days in a lighted dew chamber at 20° C.) to permit spores to germinate and infect the leaf. The plants were then transferred to a greenhouse set at 20° C. for disease to develop. When disease symptoms were fully expressed on the 1st leaves of untreated plants, infection levels were assessed on a scale of 0 to 100 percent disease severity. Percent disease control was calculated using the ratio of disease severity on treated plants relative to untreated plants. Barley seedlings (variety Harrington) were propagated in soil-less Metro mix, with each pot having 8 to 12 plants, and used in the test when first leaf was fully emerged. Test plants were inoculated by an aqueous spore suspension of Rhyncosporium secalis 24 hr after fungicide treatments. After inoculation the plants were kept in a dew room at 20° C. with 100% relative humidity for 48 hr. The plants were then transferred to a greenhouse set at 20° C. for disease to develop. Fungicide formulation, application and disease assessment on the sprayed leaves followed the procedures as described in the Example A.

| Structure (SMILES) | pest or weed control at 100 ppm (Cercospora beticola) | pest or weed control at 100 ppm [1] | pest or weed control at 100 ppm [2] | pest or weed control at 100 ppm (Rhyncosporium secalis) | Disease Control CERCBE 1 DP (Cercospora beticola; 100 ppm) | Disease Control PYRIOR 1 DP ([1]; 100 ppm, 1 Day Protectant, Rice Blast) | Disease Control COLLLA 1 DP ([2]; 100 ppm) | Disease Control RHYNSE 1 DP (Rhyncosporium secalis; 100 ppm) |
| --- | --- | --- | --- | --- | --- | --- | --- | --- |
| CCOCC(=O)OCOc1c(OC)ccnc1C(=O)N[C@H]1CCC[C@H](CCOC)[C@@H](Oc2ccccc2)[C@H](C)OC1=O [Compound F183] | 0 to 80% | 80 to 100% | 80 to 100% | 80 to 100% |  |  |  |  |
| COc1ccnc(C(=O)N[C@H]2CCC[C@H](CC3CCCC3)[C@@H](OCC3CC3)[C@H](C)OC2=O)c1OCOC(C)=O [Compound F117] | 80 to 100% | 80 to 100% | 80 to 100% | 80 to 100% |  |  |  |  |
| COc1ccnc(C(=O)N[C@H]2CCC[C@H](Cc3ccc(F)cc3F)[C@@H](OCC(C)C)[C@H](C)OC2=O)c1OCOC(C)=O [Compound F145] | 80 to 100% |  | 80 to 100% | 80 to 100% |  |  |  |  |
| COc1ccnc(C(=O)N[C@H]2CCC[C@H](Cc3ccc(F)cc3)[C@@H](OCC3CC3)[C@H](C)OC2=O)c1OCOC(C)=O [Compound F96] | 80 to 100% | 80 to 100% | 80 to 100% | 80 to 100% |  |  |  |  |
| COc1ccnc(C(=O)N[C@H]2CCC[C@H](CCF)[C@@H](OCC(C)C)[C@H](C)OC2=O)c1OCOC(C)=O [Compound F128, ((2-(((3S,7R,8R,9S)-7-(2-fluoroethyl)-8-isobutoxy-9-methyl-2-oxooxonan-3-yl)carbamoyl)-4-methoxypyridin-3-yl)oxy)methyl acetate] | 80 to 100% | 80 to 100% | 80 to 100% | 0 to 80% |  |  |  |  |
| COc1ccnc(C(=O)N[C@H]2CCC[C@H](Cc3ccccc3)[C@@H](OCC(C)C)[C@H](C)OC2=O)c1OCOC(C)=O [Compound F106] | 80 to 100% | 80 to 100% | 80 to 100% | 80 to 100% |  |  |  |  |
| CCOCC(=O)OCOc1c(OC)ccnc1C(=O)N[C@H]1CCC[C@H](Cc2ccc(F)cc2)[C@@H](OCC2CC2)[C@H](C)OC1=O [Compound F164] | 80 to 100% | 80 to 100% | 80 to 100% | 80 to 100% |  |  |  |  |
| COc1ccc(C[C@H]2CCC[C@H](NC(=O)c3nccc(OC)c3OCOC(C)=O)C(=O)O[C@@H](C)[C@@H]2Oc2ccccc2)cc1 [Compound F114] | 80 to 100% | 80 to 100% | 80 to 100% | 80 to 100% |  |  |  |  |
| COc1ccnc(C(=O)N[C@H]2CCC[C@H](Cc3ccc(F)cc3)[C@@H](OCC3CC3)[C@H](C)OC2=O)c1OCOC(C)=O [Compound F98] |  |  |  |  | A (80-100) | A (80-100) | A (80-100) | A (80-100) |
| COc1ccc(C[C@H]2CCC[C@H](NC(=O)c3nccc(OC)c3OCOC(C)=O)C(=O)O[C@@H](C)[C@@H]2OCC(C)C)cc1 [Compound F118] | 80 to 100% | 80 to 100% | 80 to 100% | 80 to 100% |  |  |  |  |
| COc1ccnc(C(=O)N[C@H]2CCC[C@H](Cc3ccccc3)[C@@H](OCC3CC3)[C@H](C)OC2=O)c1OCOC(C)=O [Compound F107] | 80 to 100% | 80 to 100% | 80 to 100% | 80 to 100% |  |  |  |  |
| COc1ccnc(C(=O)N[C@H]2CCC[C@H](Cc3ccc(C)cc3)[C@@H](OCC(C)C)[C@H](C)OC2=O)c1OCOC(C)=O [Compound F126] | 80 to 100% | 80 to 100% | 80 to 100% | 80 to 100% |  |  |  |  |
| CCCO[C@@H]1[C@@H](CCC(C)C)CCC[C@H](NC(=O)c2nccc(OC)c2OCOC(=O)COCC)C(=O)O[C@H]1C [Compound F161] | 80 to 100% | 80 to 100% | 80 to 100% | 80 to 100% |  |  |  |  |
| COc1ccnc(C(=O)N[C@H]2CCC[C@H](Cc3ccccc3)[C@@H](OCC(C)C)[C@H](C)OC2=O)c1OCOC(=O)C(C)C [Compound F151] | 80 to 100% | 80 to 100% | 80 to 100% |  |  |  |  |  |
| COc1ccnc(C(=O)N[C@H]2CCC[C@H](Cc3ccc(F)cc3)[C@@H](OCC(C)C)[C@H](C)OC2=O)c1OCOC(C)=O [Compound F102] |  |  | 80 to 100% |  |  |  |  |  |
| COc1ccnc(C(=O)N[C@H]2CCC[C@H](CCBr)[C@@H](Oc3ccccc3)[C@H](C)OC2=O)c1OC(C)=O [Compound F80] | 80 to 100% | 80 to 100% | 80 to 100% |  |  |  |  |  |
| COc1ccnc(C(=O)N[C@H]2CCC[C@H](CC3CCCCC3)[C@@H](OCC(C)C)[C@H](C)OC2=O)c1OCOC(C)=O [Compound F113] | 80 to 100% | 80 to 100% |  | 80 to 100% |  |  |  |  |
| COc1ccnc(C(=O)N[C@H]2CCC[C@H](Cc3ccc(F)cc3F)[C@@H](OC(=O)c3ccco3)[C@H](C)OC2=O)c1OCOC(=O)C(C)C [Compound F157] | 80 to 100% |  | 80 to 100% | 80 to 100% |  |  |  |  |
| CCOCC(=O)OCOc1c(OC)ccnc1C(=O)N[C@H]1CCC[C@H](Cc2ccc(F)cc2)[C@@H](OCC(C)C)[C@H](C)OC1=O [Compound F168] |  |  | 80 to 100% |  |  |  |  |  |
| CCOCC(=O)OCOc1c(OC)ccnc1C(=O)N[C@H]1CCC[C@H](CC2CCCCC2)[C@@H](OCC(C)C)[C@H](C)OC1=O [Compound F175] | 80 to 100% | 80 to 100% |  | 80 to 100% |  |  |  |  |
| COc1ccnc(C(=O)N[C@H]2CCC[C@H](Cc3ccccc3)[C@@H](OC3CCCC3)[C@H](C)OC2=O)c1OCOC(C)=O [Compound F110] |  | 80 to 100% |  | 80 to 100% |  |  |  |  |
| COc1ccnc(C(=O)N[C@H]2CCC[C@H](Cc3ccc(F)cc3F)[C@@H](OC(=O)c3ccco3)[C@H](C)OC2=O)c1OCOC(C)=O [Compound F144] | 0 to 80% |  | 80 to 100% | 80 to 100% |  |  |  |  |
